This note sets out measurements from US20090298936A1, “METHOD FOR ENERGIZING HUMAN BEINGS” (SYMRISE GmbH & Co. KG, priority 2008, published 2009).

Several values for one entry are separate records, joined by “and”; a condition that tells them apart may be missing. Equal entries are not always repeated.

In this experiment the test system is healthy human subjects (panelists). The experiment in a line: Sniff test with heartbeat measurement (finger clip Heart Rhythm Monitor, Freeze-Framer 2.0) on human panelists. Type of experiment: in vivo. Conditions: for energizing effect compared with Amarocite and the mixtures: solution in mineral oil. From the text: In order to introduce compounds of group (a) or a sensory complex as described above into the nasal cavity that will occur using many types of products containing the sensory complex the following method of human testing and data collection was developed, standardized and used to collect and analyze data to substantiate the energizing effects of the sensory complex materials in group (a).
Data collection and analysis of each panelists's heart rate was made using a finger clip attachment for the Heart Rhythm Monitor using Freeze-Framer® 2.0 software from HeartMath®, 14700 West Park Avenue, Boulder Creek, Calif.
The test is divided into 3 parts: • 1) the pre-sniff-test period: places the panelist in a neutral state (15 min), • 2) the sniff-test period (5 min), • 3) the post-sniff-test period (10 min). Typically during each test session, three fragrances (single compound or mixture of compounds) are presented to the panelist, so one test lasts for one hour.

Regarding `CCCCCC1C(=O)CCC1CC(=O)OC` (stereo not drawn) [methyl dihydro jasmonate], the “energizing effect compared with Amarocite and the mixtures” value (2.0 wt.-% alone) is reported as “Stronger energizing effects”.

For `CC(C)CCCC(C)CCO` (stereo not drawn) [tetrahydrogeraniol], for the setting “0.8 wt.-% alone”, the “energizing effect compared with Amarocite and the mixtures” value is listed as “Stronger energizing effects”.

For the molecule `COC(OC)C(C)(C)CC=C(C)C` [Amarocite ®, 1,1-dimethoxy-2,2,5-trimethyl-4-hexene], the “Heartbeat (bpm) After” value (individual panelists A-G, after inhalation, 1 wt.-% solution in mineral oil) is 77 bpm and 81 bpm and 70 bpm and 78 bpm and 72 bpm and 71 bpm and 90 bpm. Further, the “Heartbeat (bpm) Difference” value (individual panelists A-G, after minus before, 1 wt.-% solution in mineral oil) is “+9 bpm and +25 bpm and +6 bpm (2×) and +10 bpm and +12 bpm (2×)”. The “Heartbeat (bpm) Before” value (individual panelists A-G, before inhalation (baseline), 1 wt.-% solution in mineral oil) was 68 bpm (2×) and 56 bpm and 64 bpm and 60 bpm and 59 bpm and 84 bpm. The “Heartbeat (bpm) After, Mean” value (mean of panelists A-G, after inhalation, 1 wt.-% solution in mineral oil) was determined as 77 bpm. Besides, the “Heartbeat (bpm) Difference, Mean” value (mean of panelists A-G, after minus before, 1 wt.-% solution in mineral oil) is on record as “+11.4 bpm”. Further, the “Heartbeat (bpm) Before, Mean” value (mean of panelists A-G, before inhalation (baseline), 1 wt.-% solution in mineral oil) is on record as 65.6 bpm. Moreover, under “panelists, administered according to the protocol”, the “average heart rate increase” value amounted to 17.3%.
